Results on five compounds are retold here after ChEMBL document CHEMBL1926529, “Synthesis of novel benzofurocoumarin analogues and their anti-proliferative effect on human cancer cell lines” (2012).

Broadly, the GI50 is the concentration that inhibits growth by half.

In experiment [1] the test system is TCC-SUP. In words: Growth inhibition of human TCCSUP cells assessed as cell viability after 48 hrs by MTS assay. Format: functional. In general terms: Tetrazolium dyes change colour on reduction, which living cells bring about.
Experiment [2] relates to TCC-SUP. Nature of the experiment: Growth inhibition of human TCCSUP cells assessed as cell viability at 0.5 uM after 48 hrs by MTS assay. It counts as functional, cell-based.
Experiment [3] deals with MDA-MB-231. In words: Growth inhibition of human MDA-MB-231 cells assessed as cell viability at 0.5 uM after 48 hrs by MTS assay. It counts as functional, cell-based.
The test system of experiment [4] is MDA-MB-231. In words: Growth inhibition of human MDA-MB-231 cells assessed as cell viability after 48 hrs by MTS assay. The following applies: MDA-MB-231, 48 h. It counts as functional.
The subject of experiment [5] is HeLa. Nature of the experiment: Growth inhibition of human HeLa cells assessed as cell viability at 0.5 uM after 48 hrs by MTS assay. Format: functional, cell-based.
Experiment [6] concerns HeLa. Nature of the experiment: Growth inhibition of human HeLa cells assessed as cell viability after 48 hrs by MTS assay. Format: functional.

The source made the active and inactive calls. The calls are words filed in the database; no cut-off is given here.

Regarding `CCOC(=O)C(CC(C)C)NC(=O)c1cc2c(ccc3oc4ccccc4c32)oc1=O` (stereo not given), the concentration for 50% growth inhibition (GI50) was 122 nM in the experiment with TCC-SUP [1], 205 nM in the experiment on MDA-MB-231 [4] and 43 nM in the experiment with HeLa [6]. For the same compound, the “growth inhibition (GI)” value with TCC-SUP [2], in the experiment on MDA-MB-231 [3] and in the experiment with HeLa [5] was “Active” throughout.
Consider `O=c1ccc2c(ccc3oc4ccccc4c32)o1`, for which the concentration for 50% growth inhibition (GI50) is 31 nM with TCC-SUP [1], 467 nM in the experiment on MDA-MB-231 [4] and 5 nM with HeLa [6]. Further, the “growth inhibition (GI)” value in the experiment with TCC-SUP [2], with MDA-MB-231 [3] and in the experiment with HeLa [5] was “Active” each time.
As for `CCOC(=O)c1cc2c(ccc3oc4ccccc4c32)oc1=O`, the 50% growth inhibitory concentration (GI50) is 12 nM with TCC-SUP [1], 83 nM in the experiment on MDA-MB-231 [4] and 2 nM in the experiment with HeLa [6]. For the same compound, the “growth inhibition (GI)” value in the experiment on TCC-SUP [2], with MDA-MB-231 [3] and in the experiment with HeLa [5] was “Active” in each case.
With `O=C(O)c1cc2c(ccc3oc4ccccc4c32)oc1=O`, the GI50 stood at 50 nM in the experiment on TCC-SUP [1], 97 nM in the experiment with MDA-MB-231 [4] and 3 nM in the experiment with HeLa [6]. Further, the “growth inhibition (GI)” value with TCC-SUP [2], in the experiment on MDA-MB-231 [3] and with HeLa [5] was “Active” throughout.
On to `COC(=O)C(C)NC(=O)c1cc2c(ccc3oc4ccccc4c32)oc1=O` (stereo not given), for which the 50% growth inhibitory concentration (GI50) worked out at 159 nM in the experiment on TCC-SUP [1], 106 nM in the experiment on MDA-MB-231 [4] and 53 nM with HeLa [6]. Besides, the “growth inhibition (GI)” value with TCC-SUP [2], in the experiment with MDA-MB-231 [3] and in the experiment with HeLa [5] was “Active” in each case.
